Test results from ChEMBL document CHEMBL1201862, “PubChem BioAssay data set” (2004).
Active and inactive are the calls of the source.

Legend:
[1] = molecular target: T1, Small ubiquitin-related modifier 1 (Homo sapiens, UniProt P63165); assay: inhibitors of SUMO1 partner interactions, dose response, biochemical, FRET (AID 624383); format: functional; settings: read-out: IC50_Mean
[2] = molecular target: T1, Small ubiquitin-related modifier 1; assay: inhibitors of SUMO1 peptide binding, dose response, biochemical, fluorescence polarization, uHTS hits (AID 624382); format: functional; settings: read-out: IC50_Mean
[3] = Luminescence Cell-Based Dose Retest to Confirm Inhibitors of Cancer Stem Cells. [Related pubchem assays (depositor defined):AID2717, AID2721]; format: functional; settings: Homo sapiens
Vero = Vero cell cytotoxicity, cytotoxicity control for flavivirus capping enzyme inhibitors (AID 588742); format: functional; settings: Chlorocebus sabaeus
Nonstructural protein 1 = Nonstructural protein 1 (Influenza A virus, UniProt Q194T2); format: functional, Influenza A virus (A/California/07/2009(H1N1))
Sequence of Nonstructural protein 1 (Q194T2 whole entry): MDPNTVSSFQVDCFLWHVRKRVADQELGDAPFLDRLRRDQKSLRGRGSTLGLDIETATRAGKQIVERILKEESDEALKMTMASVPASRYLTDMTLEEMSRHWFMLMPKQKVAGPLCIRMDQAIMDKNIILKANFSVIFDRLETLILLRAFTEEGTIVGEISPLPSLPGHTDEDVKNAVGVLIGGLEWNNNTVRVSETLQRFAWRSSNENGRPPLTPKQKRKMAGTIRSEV

[4] = molecular target: T2, Heat shock factor protein 1 (Mus musculus, UniProt P38532); assay: HSF1 potentiators in luciferase reporter cells, confirmation, cell-based, NIH3T3, luminescence, dose retest (AID 435004); format: functional;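 further: stress induced by proteasome inhibitor MG132 added 30 min after compound; luciferase reporter driven by HSF1 response element in NIH3T3 cells; actives raise luminescence as potentiators of the MG132 stress response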
T2 sequence (P38532 whole entry): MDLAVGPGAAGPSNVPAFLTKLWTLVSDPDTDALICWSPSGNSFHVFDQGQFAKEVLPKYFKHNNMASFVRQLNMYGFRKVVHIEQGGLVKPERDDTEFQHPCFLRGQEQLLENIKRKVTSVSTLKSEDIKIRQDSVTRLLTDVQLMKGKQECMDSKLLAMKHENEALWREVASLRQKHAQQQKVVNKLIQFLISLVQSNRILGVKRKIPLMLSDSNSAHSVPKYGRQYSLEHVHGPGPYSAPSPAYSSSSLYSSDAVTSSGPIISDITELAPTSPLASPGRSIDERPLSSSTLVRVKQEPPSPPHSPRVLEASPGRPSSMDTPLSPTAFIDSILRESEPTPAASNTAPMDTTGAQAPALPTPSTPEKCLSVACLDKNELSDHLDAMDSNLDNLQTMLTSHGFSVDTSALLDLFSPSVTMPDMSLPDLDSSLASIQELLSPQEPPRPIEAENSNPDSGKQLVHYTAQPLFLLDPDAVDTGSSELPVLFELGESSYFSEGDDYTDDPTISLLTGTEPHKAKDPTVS

[5] = molecular target: T3, Type-1 angiotensin II receptor (Homo sapiens, UniProt P30556); assay: AT1 receptor antagonists, dose response, selectivity assay for APJ receptor antagonist project, cell-based, uHTS hits (AID 463214); format: functional;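 further: antagonist potency against angiotensin II stimulated AT1 response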
T3 sequence (P30556 whole entry): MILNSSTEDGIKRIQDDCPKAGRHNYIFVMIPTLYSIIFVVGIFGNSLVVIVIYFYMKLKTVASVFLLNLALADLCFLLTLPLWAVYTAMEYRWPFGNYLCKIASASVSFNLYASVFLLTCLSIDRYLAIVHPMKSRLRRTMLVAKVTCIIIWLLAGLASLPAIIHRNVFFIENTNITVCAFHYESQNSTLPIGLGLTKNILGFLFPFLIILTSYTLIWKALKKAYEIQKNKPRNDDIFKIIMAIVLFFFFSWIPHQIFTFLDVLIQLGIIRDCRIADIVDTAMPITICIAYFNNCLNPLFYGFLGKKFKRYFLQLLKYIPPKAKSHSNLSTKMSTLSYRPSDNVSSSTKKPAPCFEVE

Beta-galactosidase = Beta-galactosidase (Escherichia coli, UniProt Q8VNN2); assay: PubChem AID 485352; format: functional
[6] = molecular target: T4, Sentrin-specific protease 8 (Homo sapiens, UniProt Q96LD8); format: functional
T4 sequence (Q96LD8 whole entry): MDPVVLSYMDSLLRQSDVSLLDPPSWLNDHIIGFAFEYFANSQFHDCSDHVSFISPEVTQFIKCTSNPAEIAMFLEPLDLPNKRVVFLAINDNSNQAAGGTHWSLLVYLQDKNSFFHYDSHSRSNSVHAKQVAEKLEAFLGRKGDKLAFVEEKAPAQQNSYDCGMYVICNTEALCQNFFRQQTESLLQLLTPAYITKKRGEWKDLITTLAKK

[7] = molecular target: T4, Sentrin-specific protease 8; format: functional; remark: listed apart in the source
Streptokinase A = molecular target: T5, Streptokinase A (Streptococcus pyogenes serotype M1, UniProt P10520); assay: S. pyogenes streptokinase expression inhibitors, potency, dose response, plasminogen activation absorbance, OD405 (AID 1914); format: functional, Streptococcus pyogenes M1 GAS;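 further: secreted streptokinase activity via plasminogen activation per viability signal from cell pellet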
T5 sequence (P10520 whole entry): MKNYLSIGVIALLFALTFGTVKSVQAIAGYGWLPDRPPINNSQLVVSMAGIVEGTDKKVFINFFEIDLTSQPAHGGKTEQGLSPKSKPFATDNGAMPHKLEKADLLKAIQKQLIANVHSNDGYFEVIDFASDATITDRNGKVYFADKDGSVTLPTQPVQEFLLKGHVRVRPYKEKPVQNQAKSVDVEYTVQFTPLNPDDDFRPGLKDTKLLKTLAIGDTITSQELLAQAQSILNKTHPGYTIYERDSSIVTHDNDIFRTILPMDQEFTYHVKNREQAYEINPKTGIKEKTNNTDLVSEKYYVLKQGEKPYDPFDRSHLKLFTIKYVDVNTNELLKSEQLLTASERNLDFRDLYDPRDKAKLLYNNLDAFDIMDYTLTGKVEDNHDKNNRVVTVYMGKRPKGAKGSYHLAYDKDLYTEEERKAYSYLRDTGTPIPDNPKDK

[8] = test system: Streptococcus sp. 'group A'; assay: growth inhibition of control SK(-) GAS strain, dose response, counter-screen for streptokinase expression inhibitor project, luminescence, kanamycin, BacTiterGlo, confirmation (AID 1900); format: functional, organism-based
HEK293 = assay: inhibitors of LMP1-driven NF-kB reporter, dose response, cell-based, HEK293, luciferase, cherry-pick (AID 588343); format: functional; settings: Homo sapiens
Streptococcus = assay: Group A Streptococcus viability loss, dose response, counter-screen for streptokinase expression inhibitor project, luminescence, BacTiterGlo (AID 1915); format: functional, organism-based;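 further: potency for reduction of bacterial viability or growth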
[9] = Counterscreen for activators of the function of SWI/SNF related, matrix associated, actin dependent regulator of chromatin, subfamily a, member 2 (SMARCA2, BRM): Luminescence-based cell-based high throughput dose response assay to identify non-selective compounds using the VP16 reporter assay.; format: functional
[10] = molecular target: SWI/SNF-related matrix-associated actin-dependent regulator of chromatin subfamily A member 2 (Homo sapiens, UniProt P51531); assay: Luminescence-based cell-based high throughput dose response assay to identify activators of the function of SWI/SNF related, matrix associated, actin dependent regulator of chromatin, subfamily a, member 2 (SMARCA2, BRM).; format: functional
Sequence of SWI/SNF-related matrix-associated actin-dependent regulator of chromatin subfamily A member 2 (P51531 whole entry, the tested form may be a part): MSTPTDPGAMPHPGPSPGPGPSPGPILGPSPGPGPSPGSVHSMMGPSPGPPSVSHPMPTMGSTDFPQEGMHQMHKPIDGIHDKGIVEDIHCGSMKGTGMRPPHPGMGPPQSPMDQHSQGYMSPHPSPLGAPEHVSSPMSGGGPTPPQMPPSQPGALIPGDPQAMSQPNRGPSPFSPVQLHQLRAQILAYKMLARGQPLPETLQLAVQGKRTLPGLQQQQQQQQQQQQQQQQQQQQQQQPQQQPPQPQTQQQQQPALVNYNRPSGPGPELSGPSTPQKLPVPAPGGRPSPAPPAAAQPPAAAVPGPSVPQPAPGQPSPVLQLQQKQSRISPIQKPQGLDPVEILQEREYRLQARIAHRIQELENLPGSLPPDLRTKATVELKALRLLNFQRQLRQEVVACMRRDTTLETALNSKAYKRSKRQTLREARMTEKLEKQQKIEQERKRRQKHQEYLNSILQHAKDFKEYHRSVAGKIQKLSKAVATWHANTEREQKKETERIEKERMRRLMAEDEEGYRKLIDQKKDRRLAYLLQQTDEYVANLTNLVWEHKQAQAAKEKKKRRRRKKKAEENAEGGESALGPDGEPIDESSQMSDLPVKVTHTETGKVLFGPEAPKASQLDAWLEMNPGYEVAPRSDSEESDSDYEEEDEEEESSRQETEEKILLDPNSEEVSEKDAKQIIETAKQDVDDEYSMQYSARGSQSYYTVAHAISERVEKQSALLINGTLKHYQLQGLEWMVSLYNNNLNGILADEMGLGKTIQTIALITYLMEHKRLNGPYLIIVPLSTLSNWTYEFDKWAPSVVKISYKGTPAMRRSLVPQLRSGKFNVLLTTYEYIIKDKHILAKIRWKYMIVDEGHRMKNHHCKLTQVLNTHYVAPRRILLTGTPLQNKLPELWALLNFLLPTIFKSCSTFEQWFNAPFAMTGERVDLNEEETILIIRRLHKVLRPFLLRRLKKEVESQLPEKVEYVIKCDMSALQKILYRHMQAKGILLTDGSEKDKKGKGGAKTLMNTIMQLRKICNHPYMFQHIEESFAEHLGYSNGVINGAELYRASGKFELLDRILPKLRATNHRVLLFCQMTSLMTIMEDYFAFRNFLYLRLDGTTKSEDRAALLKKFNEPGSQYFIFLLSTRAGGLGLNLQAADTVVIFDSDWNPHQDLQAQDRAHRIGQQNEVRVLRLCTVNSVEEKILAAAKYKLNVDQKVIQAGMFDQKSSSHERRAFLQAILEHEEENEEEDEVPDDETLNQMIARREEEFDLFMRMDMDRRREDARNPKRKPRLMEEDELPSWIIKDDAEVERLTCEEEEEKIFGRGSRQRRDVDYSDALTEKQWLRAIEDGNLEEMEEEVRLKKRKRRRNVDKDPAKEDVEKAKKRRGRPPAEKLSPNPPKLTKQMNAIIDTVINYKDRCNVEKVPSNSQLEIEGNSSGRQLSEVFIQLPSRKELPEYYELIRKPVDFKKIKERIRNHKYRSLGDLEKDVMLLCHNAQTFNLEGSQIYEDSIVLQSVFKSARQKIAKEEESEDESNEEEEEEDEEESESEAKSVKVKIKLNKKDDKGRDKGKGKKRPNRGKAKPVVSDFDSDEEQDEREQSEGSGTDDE

Fatty acid synthase = Fatty acid synthase (Homo sapiens, UniProt P49327); assay: FAS thioesterase domain inhibitors, dose response, biochemical, kinetic fluorescence intensity (AID 624326); format: functional;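 further: rate of fluorescence rise from hydrolysis of a fluorogenic O-methyl fluorescein ester substrate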
Sequence of Fatty acid synthase (P49327 whole entry, the tested form may be a part): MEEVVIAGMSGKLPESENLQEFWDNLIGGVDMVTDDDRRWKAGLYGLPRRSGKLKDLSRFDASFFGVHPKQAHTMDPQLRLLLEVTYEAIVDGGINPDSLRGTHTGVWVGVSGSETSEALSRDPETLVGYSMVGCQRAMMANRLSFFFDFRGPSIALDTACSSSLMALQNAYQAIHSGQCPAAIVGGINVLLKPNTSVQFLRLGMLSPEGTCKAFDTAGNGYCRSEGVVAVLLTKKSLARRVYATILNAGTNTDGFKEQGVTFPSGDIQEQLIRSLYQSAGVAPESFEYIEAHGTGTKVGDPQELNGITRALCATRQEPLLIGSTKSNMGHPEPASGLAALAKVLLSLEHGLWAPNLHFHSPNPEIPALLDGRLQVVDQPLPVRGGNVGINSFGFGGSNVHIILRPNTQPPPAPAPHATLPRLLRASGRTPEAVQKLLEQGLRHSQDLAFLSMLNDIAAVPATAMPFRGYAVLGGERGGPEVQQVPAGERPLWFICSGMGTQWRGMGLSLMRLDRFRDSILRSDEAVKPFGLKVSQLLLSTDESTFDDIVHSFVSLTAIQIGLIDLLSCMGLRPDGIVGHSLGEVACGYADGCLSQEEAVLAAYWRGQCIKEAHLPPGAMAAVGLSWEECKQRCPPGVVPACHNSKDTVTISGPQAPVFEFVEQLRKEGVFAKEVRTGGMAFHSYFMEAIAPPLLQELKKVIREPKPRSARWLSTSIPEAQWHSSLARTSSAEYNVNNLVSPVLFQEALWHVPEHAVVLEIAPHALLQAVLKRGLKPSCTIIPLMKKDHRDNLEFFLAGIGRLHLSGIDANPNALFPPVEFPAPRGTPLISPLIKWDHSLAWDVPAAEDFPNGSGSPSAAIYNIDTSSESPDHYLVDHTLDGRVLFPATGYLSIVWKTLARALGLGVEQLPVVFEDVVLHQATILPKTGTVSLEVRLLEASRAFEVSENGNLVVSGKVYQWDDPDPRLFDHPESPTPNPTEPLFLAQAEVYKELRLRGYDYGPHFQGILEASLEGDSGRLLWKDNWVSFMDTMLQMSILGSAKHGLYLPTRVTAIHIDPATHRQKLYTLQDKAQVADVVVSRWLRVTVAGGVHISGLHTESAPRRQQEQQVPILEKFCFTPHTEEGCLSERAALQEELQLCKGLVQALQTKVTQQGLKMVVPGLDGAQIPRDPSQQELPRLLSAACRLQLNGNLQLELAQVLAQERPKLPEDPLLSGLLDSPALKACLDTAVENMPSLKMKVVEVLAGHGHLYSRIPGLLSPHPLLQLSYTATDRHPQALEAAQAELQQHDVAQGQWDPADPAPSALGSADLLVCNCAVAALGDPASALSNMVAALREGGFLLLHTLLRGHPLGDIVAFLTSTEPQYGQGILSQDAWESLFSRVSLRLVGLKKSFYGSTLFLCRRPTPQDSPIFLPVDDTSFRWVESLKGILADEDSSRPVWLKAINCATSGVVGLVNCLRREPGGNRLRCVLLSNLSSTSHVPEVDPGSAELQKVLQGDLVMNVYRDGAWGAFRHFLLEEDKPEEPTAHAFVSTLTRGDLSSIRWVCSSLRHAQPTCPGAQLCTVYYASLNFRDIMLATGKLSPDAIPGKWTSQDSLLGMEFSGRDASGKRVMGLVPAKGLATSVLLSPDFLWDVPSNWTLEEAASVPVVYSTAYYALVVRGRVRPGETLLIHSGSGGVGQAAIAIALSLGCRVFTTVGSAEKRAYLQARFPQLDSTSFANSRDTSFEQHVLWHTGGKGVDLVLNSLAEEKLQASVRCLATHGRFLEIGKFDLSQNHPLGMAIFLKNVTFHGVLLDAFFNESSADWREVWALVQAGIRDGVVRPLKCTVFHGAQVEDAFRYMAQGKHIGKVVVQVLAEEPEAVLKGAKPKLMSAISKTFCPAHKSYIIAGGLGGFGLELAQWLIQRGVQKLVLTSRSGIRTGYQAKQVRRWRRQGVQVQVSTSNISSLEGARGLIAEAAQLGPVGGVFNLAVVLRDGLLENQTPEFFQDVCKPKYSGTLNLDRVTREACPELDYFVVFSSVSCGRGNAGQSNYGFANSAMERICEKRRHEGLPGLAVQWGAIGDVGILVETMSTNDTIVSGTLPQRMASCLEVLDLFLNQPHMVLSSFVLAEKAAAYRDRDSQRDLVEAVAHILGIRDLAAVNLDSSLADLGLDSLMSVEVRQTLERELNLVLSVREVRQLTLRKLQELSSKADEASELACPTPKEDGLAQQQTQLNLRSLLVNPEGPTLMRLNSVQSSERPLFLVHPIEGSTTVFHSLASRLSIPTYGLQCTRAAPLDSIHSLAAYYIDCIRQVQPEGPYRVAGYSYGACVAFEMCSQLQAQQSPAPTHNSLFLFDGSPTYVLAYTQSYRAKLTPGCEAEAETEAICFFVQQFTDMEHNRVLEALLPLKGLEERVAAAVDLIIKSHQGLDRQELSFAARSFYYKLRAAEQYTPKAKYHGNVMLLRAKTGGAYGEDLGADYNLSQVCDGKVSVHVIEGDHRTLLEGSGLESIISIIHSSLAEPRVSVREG

[11] = molecular target: T6, Mannose-6-phosphate isomerase (Homo sapiens, UniProt P34949); assay: human PMI inhibitors, high substrate, primary screen, biochemical, fluorescence intensity, high mannose 6-phosphate (AID 1220)
T6 sequence (P34949 whole entry): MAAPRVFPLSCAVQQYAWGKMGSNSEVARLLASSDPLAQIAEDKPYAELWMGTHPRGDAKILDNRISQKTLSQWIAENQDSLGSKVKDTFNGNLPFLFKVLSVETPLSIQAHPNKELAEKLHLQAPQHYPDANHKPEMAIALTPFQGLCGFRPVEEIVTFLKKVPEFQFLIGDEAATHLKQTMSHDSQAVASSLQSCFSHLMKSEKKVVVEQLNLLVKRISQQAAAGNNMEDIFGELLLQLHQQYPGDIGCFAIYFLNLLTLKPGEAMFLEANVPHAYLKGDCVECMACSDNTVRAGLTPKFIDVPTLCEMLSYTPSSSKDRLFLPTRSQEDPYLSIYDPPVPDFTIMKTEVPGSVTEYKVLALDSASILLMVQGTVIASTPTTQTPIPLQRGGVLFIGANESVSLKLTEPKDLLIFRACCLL

[12] = molecular target: T7, Corticotropin-releasing factor receptor 2/Corticotropin-releasing factor-binding protein (Homo sapiens, UniProt P24387+Q13324); assay: activators of CRF receptor 2 with binding protein – uHTS hits, confirmation (AID 602473); format: functional; settings: read-out: EC50_Mean
T7 sequence (Q13324 whole entry): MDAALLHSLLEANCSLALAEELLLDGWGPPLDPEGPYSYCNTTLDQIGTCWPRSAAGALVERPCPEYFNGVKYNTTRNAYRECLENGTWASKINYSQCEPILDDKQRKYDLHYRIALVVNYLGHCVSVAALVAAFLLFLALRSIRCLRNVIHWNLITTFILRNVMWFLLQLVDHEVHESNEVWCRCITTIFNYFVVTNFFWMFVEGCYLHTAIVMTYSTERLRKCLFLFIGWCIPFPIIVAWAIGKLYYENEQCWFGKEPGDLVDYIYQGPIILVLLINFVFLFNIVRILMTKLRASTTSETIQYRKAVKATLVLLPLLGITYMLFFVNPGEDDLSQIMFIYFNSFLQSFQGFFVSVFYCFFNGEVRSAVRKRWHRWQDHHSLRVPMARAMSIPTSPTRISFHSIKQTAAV
T7 sequence (P24387 whole entry): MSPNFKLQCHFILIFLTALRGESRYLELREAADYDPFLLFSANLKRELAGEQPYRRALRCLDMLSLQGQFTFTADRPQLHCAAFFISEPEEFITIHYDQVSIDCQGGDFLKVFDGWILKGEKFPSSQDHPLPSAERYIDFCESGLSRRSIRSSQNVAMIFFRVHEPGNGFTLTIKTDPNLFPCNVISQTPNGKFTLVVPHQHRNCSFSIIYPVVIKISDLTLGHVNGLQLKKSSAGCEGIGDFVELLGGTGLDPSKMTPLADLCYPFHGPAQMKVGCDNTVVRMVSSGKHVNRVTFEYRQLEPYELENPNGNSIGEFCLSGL

[13] = molecular target: T7, Corticotropin-releasing factor receptor 2/Corticotropin-releasing factor-binding protein; assay: Dose Response confirmation of uHTS hits for small molecule antagonists of the CRF-binding protein and CRF-R2 receptor complex.; format: functional; settings: read-out: IC50_Mean
[14] = Fluorescence-based cell-based high throughput dose response assay for inhibitors of the interaction of nucleotide-binding oligomerization domain containing 2 (NOD2) and the receptor-interacting serine-threonine kinase 2 (RIPK2).; format: functional; settings: Homo sapiens
Paired box protein Pax-8 = Paired box protein Pax-8 (Homo sapiens, UniProt Q06710); assay: inhibitors of PAX8-driven TPO luciferase reporter, dose response, RMG-I cells, cherry-pick (AID 687027); format: functional, cell-based;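 further: luciferase reporter driven by Pax8 target thyroperoxidase promoter measured by SteadyGlo luminescence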
Sequence of Paired box protein Pax-8 (Q06710 whole entry): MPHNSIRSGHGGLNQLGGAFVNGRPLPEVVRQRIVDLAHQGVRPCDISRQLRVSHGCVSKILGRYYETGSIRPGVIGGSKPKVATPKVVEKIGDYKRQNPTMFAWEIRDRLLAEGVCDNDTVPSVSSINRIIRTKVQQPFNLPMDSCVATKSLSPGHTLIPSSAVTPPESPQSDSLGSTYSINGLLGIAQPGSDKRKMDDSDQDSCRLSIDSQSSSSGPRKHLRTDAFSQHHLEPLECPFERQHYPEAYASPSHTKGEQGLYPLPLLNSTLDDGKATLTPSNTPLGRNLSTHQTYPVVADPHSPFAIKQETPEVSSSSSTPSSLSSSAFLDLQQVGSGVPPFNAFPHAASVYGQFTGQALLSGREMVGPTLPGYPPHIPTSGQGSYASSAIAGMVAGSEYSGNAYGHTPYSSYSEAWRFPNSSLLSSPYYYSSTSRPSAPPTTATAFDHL

[15] = molecular target: T8, DNA repair protein RAD52 homolog (Homo sapiens, UniProt P43351); format: functional, biochemical
T8 sequence (P43351 whole entry): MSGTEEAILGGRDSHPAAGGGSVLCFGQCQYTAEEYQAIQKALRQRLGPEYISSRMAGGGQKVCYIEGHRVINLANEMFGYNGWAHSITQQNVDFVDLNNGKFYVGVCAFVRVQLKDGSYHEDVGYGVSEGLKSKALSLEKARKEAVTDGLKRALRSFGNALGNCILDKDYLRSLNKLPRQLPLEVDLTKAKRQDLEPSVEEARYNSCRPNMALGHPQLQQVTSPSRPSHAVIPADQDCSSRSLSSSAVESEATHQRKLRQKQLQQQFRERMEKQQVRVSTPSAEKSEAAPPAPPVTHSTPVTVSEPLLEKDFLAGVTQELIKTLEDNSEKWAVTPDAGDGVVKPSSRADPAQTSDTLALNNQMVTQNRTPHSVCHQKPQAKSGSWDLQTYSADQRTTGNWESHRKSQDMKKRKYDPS

[16] = intracellular Trypanosoma cruzi inhibitors in host cells – cell-based, plate reader, cherry-pick samples, set 3, dose response (AID 651818); format: functional;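 further: compounds incubated with infected cells for about four days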

T1 sequence (P63165 whole entry): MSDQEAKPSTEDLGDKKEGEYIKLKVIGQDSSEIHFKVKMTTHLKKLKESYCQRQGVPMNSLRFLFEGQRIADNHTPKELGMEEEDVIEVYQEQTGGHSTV

COc1ccc(C(=O)Nc2ccccc2C(=O)NC(Cc2ccc(O)cc2)C(=O)NNC(=O)c2ccc(C)cc2)cc1 (centres undefined)
IC50 [1]: 2.32 µM (active)
IC50 [2]: > 66.6 µM (inactive)

O=C/C=C/c1c(-c2ccccc2)cc2oc3ccccc3cc1-2
AC50 [3]: 10.4 µM (active)
CC50 (Vero): > 40 µM (active)
IC50 (Nonstructural protein 1): 37.1 µM (active)
EC50 [4]: > 260 µM (inactive)

COc1ccc(C(=O)CNc2ccccc2CO)cc1
IC50 [5]: 26.1 µM (not active)
EC50 (Beta-galactosidase): > 40 µM (inactive)

NS(=O)(=O)c1ccc(CCNC(=O)COC(=O)c2ccc([N+](=O)[O-])o2)cc1
IC50 [6]: 9.2 µM (active)
IC50 [7]: 6.46 µM (active)

CCCCCCCCOC(=O)/C=C/c1c(C)nc(O)nc1O
EC50 (Streptokinase A): 2.38 µM (active)
EC50 [8]: 1.76 µM (active)
AC50 (HEK293): 2.59 µM (active)
EC50 (Streptococcus): > 150 µM (not active)

Cc1cc(NC(=O)c2ccco2)ncc1NC(=O)Cc1ccccc1
EC50 [9]: > 91.2 µM (inactive)
EC50 [10]: > 91.2 µM (inactive)

COc1ccc(NC(=O)CC2C(=O)N(C)C(=S)N2Cc2cccs2)cc1 (centres undefined)
IC50 (Fatty acid synthase): 15.8 µM (active)

CN(C)/C=N/c1c(Br)cc(Br)c2nonc12
IC50 [11]: > 50 µM (not active)
IC50 [6]: 10.2 µM (active)
IC50 [7]: 21.3 µM (active)

NC(Cc1ccc(O)cc1)C(=O)NN=Cc1ccc(N(CCCl)CCCl)cc1 (centres undefined)
EC50 [12]: > 53 µM (inactive)
IC50 [13]: > 47.1 µM (inactive)
AC50 (HEK293): 31.4 µM (active)

CCN(CC)CCNC(=O)C(Cl)=C1C(Cl)=C(Cl)C(Cl)=C1Cl
EC50 [9]: > 91.2 µM (inactive)
EC50 [10]: > 91.2 µM (inactive)

O=c1ccc2ccccc2c2ccccc12
IC50 [14]: 6.6 µM (active)
AC50 (Paired box protein Pax-8): 6.07 µM (active)

COc1ccc2sc3cccc(NCCN(C)C)c3c(=O)c2c1
AC50 [15]: 0.683 µM (active)
EC50 [9]: > 91.2 µM (inactive)
EC50 [10]: > 10.1 µM (inactive)

C[C@H](CO)N1C[C@H](C)[C@H](CN(C)Cc2ccc(C(=O)Nc3ccccc3N)cc2)Oc2c(NS(=O)(=O)c3ccccc3)cccc2C1=O
AC50 [16]: 2.19 µM (active)

C[C@H](CO)N1C[C@H](C)[C@@H](CN(C)CC2CCCCC2)Oc2c(NC(=O)Nc3ccc(C(F)(F)F)cc3)cccc2C1=O
AC50 [16]: 3.48 µM (active)

C[C@H](CO)N1C[C@H](C)[C@H](CN(C)Cc2ccc(-c3ccccc3)cc2)Oc2ccc(NC(=O)Nc3ccc(C(F)(F)F)cc3)cc2CC1=O
AC50 [16]: 2.21 µM (active)

C[C@@H]1CN([C@@H](C)CO)C(=O)Cc2cc(NC(=O)Nc3ccccc3)ccc2O[C@@H]1CN(C)Cc1ccc(Cl)c(Cl)c1
AC50 [16]: 3.92 µM (active)
